The record followed here is patent US9821080B2 (priority 2011, dated 2017).

For one experiment, the system named is H1N1. Also on record: species or system influenza virus A/Puerto Rico/8/1934 (H1N1).
For a further experiment, the system named is ST cells. It counts as cell-based, swine.

Turning to fluorescein isothiocyanate [FITC], the “total fluorescence relative to H1N1 modified with 25 μg/ml FSL-FLRO4” value with H1N1 was “about 9 times”. In addition, the “fewer labelled virions infecting cells compared with 25 μg/ml FSL-FLRO4 modified H1N1” value with ST cells worked out at 9 times.
